The values that follow come from patent US11667630B2, “Nitrogen-containing 6-membered cyclic compound” (Asahi Kasei Pharma Corporation, priority 2017, dated 2023).

A value given as a limit tells only on which side of the number the result lay.

The EC50 is the concentration that produces a half-maximal response. Low values mean an effect from little substance, high ones a need for much substance. The term IC50 denotes the concentration that inhibits the measured activity by half.

One test deals with rat femur. As to the kind of experiment: Neo-osteogenesis action in rat femur. Format: in vivo. Conditions: female SD rats, one week after administration; for Bone mineral content of femur 1/3 center region (mg) Left femur (administered with compound): 100 μg test compound in in situ-solidified gel solution injected between quadriceps and periosteum; for Bone mineral content of femur 1/3 center region (mg) Right femur (no administration of compound): contralateral femur, 100 μg test compound given at left femur. On the procedure:
Eight weeks old female SD rats (Charles River Japan) were fixed in the side lying position under triple anesthesia (medetomidine hydrochloride, midazolam, and butorphanol tartrate). After hair of the left femoral region was shaved with a hair clipper, and disinfection treatment was performed with 70% ethanol, an in situ-solidified gel solution of a test compound, specifically, a test compound dissolved in poly(lactic-co-glycolic acid) (RESOMER RG502H, produced by Evonik Industries)/poly(lactic-co-glycolic acid)-polyethylene glycol block copolymer (5050 DLG mPEG 5000, produced by Lakeshore Biomaterials)/N-methyl-2-pyrroridone (produced by Wako) (weight ratio 47%/3%/50%), was filled in a 1-mL syringe, a 21G injection needle was attached to the syringe, and the needle was transdermally stabbed from the quadriceps to the periosteum near the center of the femoral diaphyseal. Then, 100 μg as the amount of the test compound, or 50 μL as the administration volume of the solution was injected between the quadriceps and the periosteum, and the injection needle was drawn out. To the rats of the control group, the aforementioned in situ-solidified gel solution alone was administered. One week after the administration of the drug solution, the triple anesthesia was given to the animals, and they were fixed in the supine position, and euthanized by bleeding. […], circumferential tissues such as muscles were removed, the bone mineral content of the whole femur was measured by using a bone mineral analyzer DCS-600EX (produced by ALOKA), then it was divided into three portions along the long axis, and the bone mineral content of the center part (diaphysis) was evaluated. The test was performed with the groups each consisting of 6 animals.

Test [1] addresses T1, human EP4 receptor (Homo sapiens, UniProt P35408). As to the kind of experiment: Measurement of EP4 agonist activity (cAMP production). Format: cell-based. Also noted: expressed in transfected cells; host or cells: HEK293. Conditions: cAMP production in HEK293 cells stably expressing human EP4 receptor; average values where measured two or more times. The protocol: In order to investigate EP4 receptor agonist activity of the compounds of the present invention, production of cAMP was measured in HEK293 cells that were made to stably express the human EP4 receptor.
By using Refseq Database, prostaglandin E receptor was searched for. As a result, gene information of human EP4 (NM_000958) receptor was obtained. On the basis of this sequence information, the human EP4 receptor gene was cloned by PCR in a conventional manner using human cDNA as the template, and HEK293 cells that were made to stably express the human EP4 receptor were established. When cryopreserved cells of this strain were thawed and used, cells subcultured three times or more within a certain period of time (about 1 to 2 weeks) by using Dulbecco's Modified Eagle's Medium (Dulbecco's Modified Eagle's Medium may be henceforth abbreviated as DMEM) containing 10% FBS, 50 units each of penicillin and streptomycin were used. The subcultured cells were inoculated in wells of a poly-D-lysine-coated 96-well plate at a density of 2×10^4 to 2.5×10^4 cells/well, and cultured for one day. The medium in the wells was removed by suction, then DMEM (80 μL) was added to each well, and incubation was performed at 37° C. for 15 minutes. […] The reaction was allowed at 37° C. for 30 minutes, then the medium was removed by suction, Assay/Lysis Buffer (100 μL) contained in cAMP Screen Kit (produced by Applied Biosystems) was added to terminate the reaction. Then, the reaction mixture was incubated at 37° C. for 30 minutes to prepare a sample for quantification of cAMP, and the amount of cAMP in the sample was quantified according to the method indicated in cAMP Screen Kit. By non-linear regression of the compound concentration and the amount of cAMP, the concentration of the compound required for increasing cAMP to 50% of the maximum increase (EC50 value) was calculated by using the Kaleida Graph.
In general terms: Changes in cAMP serve as a functional read-out for many G protein-coupled receptors.

The next test concerns the target T2, human EP2 receptor (Homo sapiens, UniProt P43116).
T2 construct: purchased Merck Millipore HTS185M
As to the kind of experiment: Receptor binding test, [3H]PGE2 binding inhibition, EP2. As to conditions: [3H]PGE2 2.56 nmol/L, membrane fraction HTS185M, 25°C 60 minutes. The protocol:
(§1) In order to evaluate selectivity to each EP receptor subtype, [^3H]PGE2 binding-inhibition activities of test compounds for cell membranes on which human EP2, human EP3, and human EP4 receptors were stably expressed were measured.
(§2) As the membrane fractions of the prostaglandin E receptors EP2, EP3, and EP4, 10.0 μg protein/tube each of HTS185M, HTS092M, and HTS142M of Merck Millipore were used, respectively. Each membrane fraction was incubated with a reaction mixture (250 μL/tube) containing a test compound and [3H]PGE2 at 25° C. for 60 minutes. […] After the reaction, the membrane fraction was collected on filter paper by using a cell harvester, the filter paper was transferred to a measurement vial, and the measurement was performed on a liquid scintillation counter.
(§3) The nonspecific binding was determined as binding observed in the presence of excess amount (10 μM) of unlabeled PGE2. The measurement of the [3H]PGE2 binding-inhibiting activity of a test compound was performed by adding the test compound at various concentrations. The following buffers were used for the reaction.
Buffer for EP2: 50 mmol/L HEPES-NaOH (pH 7.4) containing 5 mmol/L MgCl2, 1 mmol/L CaCl2), and 0.2% BSA

The target of another test is T3, human EP3 receptor (Homo sapiens, UniProt P43115).
T3 construct: purchased Merck Millipore HTS092M
T3 sequence (P43115 1-390): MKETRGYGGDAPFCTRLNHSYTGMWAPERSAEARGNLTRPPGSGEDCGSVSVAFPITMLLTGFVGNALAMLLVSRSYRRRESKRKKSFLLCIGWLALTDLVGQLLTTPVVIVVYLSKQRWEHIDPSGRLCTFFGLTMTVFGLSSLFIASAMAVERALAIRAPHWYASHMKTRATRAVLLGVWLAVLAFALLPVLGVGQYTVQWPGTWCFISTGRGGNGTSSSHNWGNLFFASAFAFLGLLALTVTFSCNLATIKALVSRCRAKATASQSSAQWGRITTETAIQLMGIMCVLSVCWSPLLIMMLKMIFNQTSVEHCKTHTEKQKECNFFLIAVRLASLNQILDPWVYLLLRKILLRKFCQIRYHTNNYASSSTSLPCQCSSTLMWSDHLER
The test can be described thus: Receptor binding test, [3H]PGE2 binding inhibition, EP3. As to conditions: [3H]PGE2 1.54 nmol/L, membrane fraction HTS092M, 25°C 60 minutes. On the procedure: as §1, §2, §3
Buffer for EP3: 50 mmol/L Tris-HCl buffer containing 10 mmol/L MgCl2, and 1 mmol/L EDTA

Test [2] has as its target T1, human EP4 receptor. As to the kind of experiment: Receptor binding test, [3H]PGE2 binding inhibition, EP4. Details: purchased Merck Millipore HTS142M. Conditions: [3H]PGE2 1.24 nmol/L, membrane fraction HTS142M, 25°C 60 minutes. The protocol:
as §1, §2, §3
Buffer for EP4: 50 mmol/L HEPES-NaOH (pH7.4) containing 5 mmol/L MgCl2, 1 mmol/L CaCl2), and 0.2% BSA

T1 sequence (P35408 whole entry): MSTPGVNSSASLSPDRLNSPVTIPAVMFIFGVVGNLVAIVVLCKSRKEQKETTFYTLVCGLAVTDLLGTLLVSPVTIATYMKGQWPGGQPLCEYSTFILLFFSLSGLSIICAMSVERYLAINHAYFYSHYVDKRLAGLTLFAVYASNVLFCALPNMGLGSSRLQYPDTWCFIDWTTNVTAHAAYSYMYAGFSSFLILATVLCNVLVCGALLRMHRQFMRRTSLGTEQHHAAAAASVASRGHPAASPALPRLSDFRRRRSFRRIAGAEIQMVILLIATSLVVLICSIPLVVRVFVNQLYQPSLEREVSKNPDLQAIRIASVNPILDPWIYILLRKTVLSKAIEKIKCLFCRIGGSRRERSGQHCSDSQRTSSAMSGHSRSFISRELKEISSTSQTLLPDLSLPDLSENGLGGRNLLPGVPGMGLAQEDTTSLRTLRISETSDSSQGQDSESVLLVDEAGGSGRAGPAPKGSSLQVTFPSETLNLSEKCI
T2 sequence (P43116 whole entry): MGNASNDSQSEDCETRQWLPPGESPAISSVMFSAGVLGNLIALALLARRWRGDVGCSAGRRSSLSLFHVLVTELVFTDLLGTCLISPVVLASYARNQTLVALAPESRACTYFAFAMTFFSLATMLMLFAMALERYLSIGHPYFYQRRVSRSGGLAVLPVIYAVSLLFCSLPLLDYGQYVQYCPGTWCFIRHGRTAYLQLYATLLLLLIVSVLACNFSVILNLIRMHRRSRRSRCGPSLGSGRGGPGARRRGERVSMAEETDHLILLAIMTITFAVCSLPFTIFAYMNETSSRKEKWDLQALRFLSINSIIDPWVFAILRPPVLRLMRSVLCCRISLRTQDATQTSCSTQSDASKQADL

In the case of `O=C(O)c1ccc(CCN2C(=O)SCCN2CCC(O)Cc2cccc(C#Cc3ccoc3)c2)s1` (stereo not drawn) [Example 10, 5-(2-(4-(4-(3-(Furan-3-ylethynyl)phenyl)-3-hydroxybutyl)-2-oxo-1,3,4-thiadiazinan-3-yl)ethyl)thiophene-2-carboxylic acid], in the test with rat femur, the “Bone mineral content of femur 1/3 center region (mg) Left femur (administered with compound)” value is reported as 78.0 ± 1.5 mg and the “Bone mineral content of femur 1/3 center region (mg) Right femur (no administration of compound)” value turned out to be 61.1 ± 0.5 mg. This compound also returned an EC50 on human EP4 receptor [1] of 0.065 nM.

Consider `Cc1cc(C#Cc2ccsc2)cc(CC(O)CCN2CCSC(=O)N2CCc2ccc(C(=O)O)s2)c1` (stereo not drawn) [Example 19, 5-(2-(4-(3-Hydroxy-4-(3-methyl-5-(thiophen-3-ylethynyl)phenyl)butyl)-2-oxo-1,3,4-thiadiazinan-3-yl)ethyl)thiophene-2-carboxylic acid], for which, in the test on rat femur, the “Bone mineral content of femur 1/3 center region (mg) Left femur (administered with compound)” value is 85.8 ± 2.3 mg and the “Bone mineral content of femur 1/3 center region (mg) Right femur (no administration of compound)” value was 59.6 ± 1.4 mg. On human EP4 receptor [1], this compound gave an EC50 of 0.1 nM.

With `O=C(O)c1ccc(CCN2C(=O)SCCN2CCC(O)Cc2cc(C#Cc3ccsc3)cs2)s1` (stereo not drawn) [Example 22, 5-(2-(4-(3-Hydroxy-4-(4-(thiophen-3-ylethynyl)thiophen-2-yl)butyl)-2-oxo-1,3,4-thiadiazinan-3-yl)ethyl)thiophene-2-carboxylic acid], in the test on rat femur, the “Bone mineral content of femur 1/3 center region (mg) Left femur (administered with compound)” value is on record as 79.5 ± 1.9 mg and the “Bone mineral content of femur 1/3 center region (mg) Right femur (no administration of compound)” value is 60.3 ± 2.7 mg. Moreover, the response on human EP4 receptor [1] was half-maximal at 0.055 nM (EC50).

Regarding `O=C(O)c1ccc(CCN2C(=O)SCCN2CCC(O)Cc2ccc(F)c(C#Cc3ccsc3)c2)s1` (stereo not drawn) [Example 20, 5-(2-(4-(4-(4-Fluoro-3-(thiophen-3-ylethynyl)phenyl)-3-hydroxybutyl)-2-oxo-1,3,4-thiadiazinan-3-yl)ethyl)thiophene-2-carboxylic acid], in the test with rat femur, the “Bone mineral content of femur 1/3 center region (mg) Left femur (administered with compound)” value is recorded as 79.4 ± 5.2 mg and the “Bone mineral content of femur 1/3 center region (mg) Right femur (no administration of compound)” value is 58.7 ± 3.6 mg. On human EP4 receptor [1], this compound registered a concentration giving a half-maximal response (EC50) of 0.07 nM.

Consider `O=C(O)c1ccc(CCN2C(=O)SCCN2CC[C@@H](O)Cc2cccc(C#Cc3ccoc3)c2)s1` [Example 26, (S)-5-(2-(4-(4-(3-(Furan-3-ylethynyl)phenyl)-3-hydroxybutyl)-2-oxo-1,3,4-thiadiazinan-3-yl)ethyl)thiophene-2-carboxylic acid], for which the figures for the IC50 at human EP2 receptor, at human EP3 receptor and on human EP4 receptor [2] were more than 1000 nM, more than 1000 nM and 16.2 nM, respectively. Moreover, the “Bone mineral content of femur 1/3 center region (mg) Left femur (administered with compound)” value in the test on rat femur amounted to 87.0 ± 1.6 mg. For the same compound, the “Bone mineral content of femur 1/3 center region (mg) Right femur (no administration of compound)” value in the test on rat femur turned out to be 65.9 ± 1.2 mg. The compound further showed an EC50 at human EP4 receptor [1] of 0.17 nM.

Take `O=C(O)c1ccc(CCN2C(=O)SCCN2CC[C@@H](O)Cc2cccc(C#Cc3cscn3)c2)s1` [Example 25, (S)-5-(2-(4-(3-Hydroxy-4-(3-(thiazol-4-ylethynyl)phenyl)butyl)-2-oxo-1,3,4-thiadiazinan-3-yl)ethyl)thiophene-2-carboxylic acid]: the IC50 on human EP2 receptor was more than 1000 nM; on human EP3 receptor, more than 1000 nM; on human EP4 receptor [2] it was 10.9 nM. The “Bone mineral content of femur 1/3 center region (mg) Left femur (administered with compound)” value with rat femur is given as 79.1 ± 4.0 mg. Further, the “Bone mineral content of femur 1/3 center region (mg) Right femur (no administration of compound)” value in the test with rat femur is listed as 61.0 ± 2.1 mg. This compound also returned an EC50 on human EP4 receptor [1] of 0.095 nM.

As to `O=C(O)c1ccc(CCN2C(=O)SCCN2CCC(O)Cc2cccc(C#Cc3cccs3)c2)s1` (stereo not drawn) [Example 3, 5-(2-(4-(3-Hydroxy-4-(3-(thiophen-2-ylethynyl)phenyl)butyl)-2-oxo-1,3,4-thiadiazinan-3-yl)ethyl)thiophene-2-carboxylic acid], in the test with rat femur, the “Bone mineral content of femur 1/3 center region (mg) Left femur (administered with compound)” value was found to be 80.2 ± 2.6 mg and the “Bone mineral content of femur 1/3 center region (mg) Right femur (no administration of compound)” value was determined as 66.7 ± 2.7 mg. On human EP4 receptor [1], this compound gave an EC50 of 0.13 nM.

For `O=C(O)c1ccc(CCN2C(=O)SCCN2CCC(O)Cc2cccc(C#Cc3nccs3)c2)s1` (stereo not drawn) [Example 13, 5-(2-(4-(3-Hydroxy-4-(3-(thiazol-2-ylethynyl)phenyl)butyl)-2-oxo-1,3,4-thiadiazinan-3-yl)ethyl)thiophene-2-carboxylic acid], in the test with rat femur, the “Bone mineral content of femur 1/3 center region (mg) Left femur (administered with compound)” value came out at 82.0 ± 3.4 mg and the “Bone mineral content of femur 1/3 center region (mg) Right femur (no administration of compound)” value worked out at 65.5 ± 2.7 mg. Further, the response on human EP4 receptor [1] was half-maximal at 0.34 nM (EC50).
